Test results published in patent US20060063755A1, “Loxapine analogs and methods of use thereof” (priority 2004, published 2006).
Several values for one entry are separate records, joined by “and”; a condition that tells them apart may be missing. Equal entries are not always repeated.

Columns and labels:
D2 receptors = D2 receptors (Homo sapiens, UniProt P14416); assay: Dopamine D2 binding assay (human)
Method: Binding assays were performed using the disclosed sleep-inducing agents and derivatives selected from those listed in Table 1 in competitive binding assays with known standards for the H1 histamine receptor, and the M1, M2, and M3 muscarinic receptors, alpha 1 and alpha 2 receptors, and D1 and D2 receptors. […]

M1 muscarinic receptor = molecular target: T1, M1 muscarinic receptor (Homo sapiens, UniProt P11229); assay: M1 binding assay, [3H]-scopolamine N-methyl chloride, CHO cells; settings: human recombinant
T1 construct: purchased PerkinElmer, Inc., Wellesley, Mass; host or cells: CHO cells
T1 sequence (P11229 1-460): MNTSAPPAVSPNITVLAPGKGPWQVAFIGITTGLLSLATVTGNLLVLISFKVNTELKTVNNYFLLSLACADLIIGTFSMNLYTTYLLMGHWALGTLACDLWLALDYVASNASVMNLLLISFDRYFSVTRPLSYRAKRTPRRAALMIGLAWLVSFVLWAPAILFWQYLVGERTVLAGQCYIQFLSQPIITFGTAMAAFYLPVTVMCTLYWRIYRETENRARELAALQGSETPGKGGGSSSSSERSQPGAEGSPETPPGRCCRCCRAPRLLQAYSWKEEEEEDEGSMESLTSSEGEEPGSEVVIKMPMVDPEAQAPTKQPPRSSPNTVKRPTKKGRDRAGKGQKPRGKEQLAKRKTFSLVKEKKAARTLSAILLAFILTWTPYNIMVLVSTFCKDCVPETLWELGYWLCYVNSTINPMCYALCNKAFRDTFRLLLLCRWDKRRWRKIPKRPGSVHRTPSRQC

alpha 2 receptors = assay: Alpha 2 receptor binding assay; settings: read-out: Ki Alpha2
Method: (§1) Binding assays were performed using the disclosed sleep-inducing agents and derivatives selected from those listed in Table 1 in competitive binding assays with known standards for the H1 histamine receptor, and the M1, M2, and M3 muscarinic receptors, alpha 1 and alpha 2 receptors, and D1 and D2 receptors.

M3 muscarinic receptor = molecular target: T2, M3 muscarinic receptor (Homo sapiens, UniProt P20309); assay: M3 binding assay, [3H]-scopolamine N-methyl chloride, CHO cells; settings: human recombinant
T2 construct: purchased PerkinElmer, Inc., Wellesley, Mass; host or cells: CHO cells

hERG channel = hERG channel (Homo sapiens, UniProt Q12809); assay: hERG channel current block, whole cell recording in HEK293 cells; assay type: cell-based; settings: HEK293 cells expressing hERG
Method: Other in vitro selection criteria for loxapine analogs of the invention includes hERG binding.
(Brown and Rampe (2000)).
In one embodiment of the HERG assay, the positive control (i.e., reference compound) is terfenadine (Sigma, St. Louis Mo.), which has been shown, at a concentration of 60 nM, to block HERG current by approximately 75%. Test compounds are delivered in HEPES-buffered physiological saline (HB-PS)+0.1% dimethyl sulfoxide (DMSO).
Clin. Exp. Allergy 29 Suppl 3, 174-181.
If the final DMSO concentration must be greater than 0.3%, to reach a specified test article concentration, a separate vehicle control test with an n>2 was performed at the highest final DMSO concentration.
Each cell acted as its own control. […] One concentration of the positive control article (60 nM terfenadine) was applied to two cells (n≧2).

Dopamine, D1 = Dopamine, D1 (Homo sapiens, UniProt P21728); assay: Dopamine D1 (human recombinant) binding assay
Method: as §1
Dopamine, D1 (human recombinant) binding assay was performed according to published procedures. See, e.g., Jarvie, et al. J. Recept Res., 13(1-4): 573-90 (1993); and Billard, et al. Life Sciences, 35(18): 1885-93 (1984), with modifications

alpha 1 receptors = assay: Alpha 1 receptor binding assay; settings: read-out: Ki Alpha1
Method: as §1

H1 histamine receptor = molecular target: T3, H1 histamine receptor (Bos taurus, UniProt P30546); assay: H1 competitive binding assay, [3H]pyrilamine, bovine cerebellar membranes; settings: bovine cerebellar membrane
T3 construct: the receptors were obtained from bovine cerebellar membrane tissue; from tissue; host or cells: bovine cerebellar membranes

M2 muscarinic receptor = molecular target: T4, M2 muscarinic receptor (Homo sapiens, UniProt P08172); assay: M2 binding assay, [3H]-scopolamine N-methyl chloride, CHO cells; settings: human recombinant
T4 construct: purchased PerkinElmer, Inc., Wellesley, Mass; host or cells: CHO cells
T4 sequence (P08172 1-466): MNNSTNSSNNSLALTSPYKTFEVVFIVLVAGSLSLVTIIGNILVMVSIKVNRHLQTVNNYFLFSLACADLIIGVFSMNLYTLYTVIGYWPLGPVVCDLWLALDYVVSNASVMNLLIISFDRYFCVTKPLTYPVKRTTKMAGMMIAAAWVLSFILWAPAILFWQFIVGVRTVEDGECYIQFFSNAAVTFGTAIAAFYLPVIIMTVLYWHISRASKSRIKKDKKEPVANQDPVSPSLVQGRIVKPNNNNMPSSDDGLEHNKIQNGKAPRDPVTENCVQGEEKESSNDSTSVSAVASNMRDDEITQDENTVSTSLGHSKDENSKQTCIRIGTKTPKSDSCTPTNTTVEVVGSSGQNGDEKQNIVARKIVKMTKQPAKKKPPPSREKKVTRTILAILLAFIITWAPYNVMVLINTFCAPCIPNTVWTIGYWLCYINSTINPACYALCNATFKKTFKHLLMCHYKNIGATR

T2 sequence (P20309 whole entry): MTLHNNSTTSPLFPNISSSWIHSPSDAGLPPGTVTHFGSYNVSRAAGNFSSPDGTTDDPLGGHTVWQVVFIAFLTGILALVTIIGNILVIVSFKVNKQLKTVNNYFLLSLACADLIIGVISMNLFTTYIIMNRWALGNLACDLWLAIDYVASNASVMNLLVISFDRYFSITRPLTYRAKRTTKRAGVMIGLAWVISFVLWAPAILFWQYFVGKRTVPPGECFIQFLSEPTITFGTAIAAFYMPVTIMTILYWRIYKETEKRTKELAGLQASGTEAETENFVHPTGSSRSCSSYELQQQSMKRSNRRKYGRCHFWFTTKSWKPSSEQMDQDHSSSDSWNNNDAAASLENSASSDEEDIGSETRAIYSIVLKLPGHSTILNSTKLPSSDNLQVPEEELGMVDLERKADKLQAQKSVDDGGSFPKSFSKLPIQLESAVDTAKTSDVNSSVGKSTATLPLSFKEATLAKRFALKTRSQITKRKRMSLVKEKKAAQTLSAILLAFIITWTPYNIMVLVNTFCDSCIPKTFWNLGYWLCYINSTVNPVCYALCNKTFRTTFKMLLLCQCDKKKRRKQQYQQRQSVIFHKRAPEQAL
D2 receptors, sequence (P14416 whole entry): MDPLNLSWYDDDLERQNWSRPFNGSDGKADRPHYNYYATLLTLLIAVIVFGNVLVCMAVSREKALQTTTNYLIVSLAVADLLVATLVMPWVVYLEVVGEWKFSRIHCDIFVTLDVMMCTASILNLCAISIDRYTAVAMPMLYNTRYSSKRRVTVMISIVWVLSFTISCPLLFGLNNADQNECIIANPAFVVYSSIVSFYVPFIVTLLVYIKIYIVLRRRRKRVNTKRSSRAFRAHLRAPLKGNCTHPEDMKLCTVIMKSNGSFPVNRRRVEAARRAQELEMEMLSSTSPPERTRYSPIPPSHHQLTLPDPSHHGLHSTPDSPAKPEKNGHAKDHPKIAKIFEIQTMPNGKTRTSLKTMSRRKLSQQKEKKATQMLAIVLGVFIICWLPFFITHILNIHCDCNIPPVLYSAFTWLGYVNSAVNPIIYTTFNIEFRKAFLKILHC
Dopamine, D1, sequence (P21728 whole entry): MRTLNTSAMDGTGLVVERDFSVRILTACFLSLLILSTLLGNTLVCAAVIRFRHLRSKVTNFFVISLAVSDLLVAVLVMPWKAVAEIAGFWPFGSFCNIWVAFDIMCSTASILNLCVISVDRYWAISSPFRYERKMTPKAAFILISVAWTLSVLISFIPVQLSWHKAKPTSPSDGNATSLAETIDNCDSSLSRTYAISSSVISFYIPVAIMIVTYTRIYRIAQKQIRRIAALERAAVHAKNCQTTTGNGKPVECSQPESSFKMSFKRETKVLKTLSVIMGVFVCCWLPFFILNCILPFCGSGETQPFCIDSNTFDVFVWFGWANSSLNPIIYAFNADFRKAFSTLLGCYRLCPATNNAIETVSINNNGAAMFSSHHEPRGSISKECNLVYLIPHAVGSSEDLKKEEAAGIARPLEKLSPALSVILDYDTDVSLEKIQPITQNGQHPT
hERG channel, sequence (Q12809 whole entry): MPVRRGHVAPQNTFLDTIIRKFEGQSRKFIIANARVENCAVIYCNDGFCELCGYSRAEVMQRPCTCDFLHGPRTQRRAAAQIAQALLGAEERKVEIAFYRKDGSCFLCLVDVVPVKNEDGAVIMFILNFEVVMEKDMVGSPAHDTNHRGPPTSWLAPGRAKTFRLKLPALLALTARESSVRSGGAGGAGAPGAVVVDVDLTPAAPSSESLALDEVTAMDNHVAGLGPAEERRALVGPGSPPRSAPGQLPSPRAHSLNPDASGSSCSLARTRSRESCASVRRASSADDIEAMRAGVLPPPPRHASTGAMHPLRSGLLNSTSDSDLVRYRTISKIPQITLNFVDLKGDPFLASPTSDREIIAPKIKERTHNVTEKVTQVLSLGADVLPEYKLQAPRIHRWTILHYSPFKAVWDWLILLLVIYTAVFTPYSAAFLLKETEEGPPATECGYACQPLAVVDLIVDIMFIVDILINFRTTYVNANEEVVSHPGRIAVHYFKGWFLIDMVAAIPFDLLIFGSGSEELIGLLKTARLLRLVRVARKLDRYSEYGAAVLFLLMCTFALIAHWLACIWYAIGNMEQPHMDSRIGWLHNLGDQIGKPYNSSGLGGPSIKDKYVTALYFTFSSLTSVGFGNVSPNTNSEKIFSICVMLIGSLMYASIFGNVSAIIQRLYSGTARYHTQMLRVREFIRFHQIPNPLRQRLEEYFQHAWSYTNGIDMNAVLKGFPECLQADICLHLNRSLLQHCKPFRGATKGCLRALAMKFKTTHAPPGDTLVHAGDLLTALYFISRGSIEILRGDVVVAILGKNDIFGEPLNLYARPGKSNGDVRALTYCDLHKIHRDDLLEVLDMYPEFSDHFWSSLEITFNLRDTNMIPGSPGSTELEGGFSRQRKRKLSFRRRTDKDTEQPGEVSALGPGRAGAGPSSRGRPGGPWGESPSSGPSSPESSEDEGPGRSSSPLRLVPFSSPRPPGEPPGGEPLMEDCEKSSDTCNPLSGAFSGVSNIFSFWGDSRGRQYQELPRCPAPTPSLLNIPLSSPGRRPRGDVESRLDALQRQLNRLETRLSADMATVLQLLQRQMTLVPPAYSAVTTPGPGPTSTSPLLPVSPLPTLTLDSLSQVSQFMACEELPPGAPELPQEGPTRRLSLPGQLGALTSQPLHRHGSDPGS
T3 sequence (P30546 whole entry): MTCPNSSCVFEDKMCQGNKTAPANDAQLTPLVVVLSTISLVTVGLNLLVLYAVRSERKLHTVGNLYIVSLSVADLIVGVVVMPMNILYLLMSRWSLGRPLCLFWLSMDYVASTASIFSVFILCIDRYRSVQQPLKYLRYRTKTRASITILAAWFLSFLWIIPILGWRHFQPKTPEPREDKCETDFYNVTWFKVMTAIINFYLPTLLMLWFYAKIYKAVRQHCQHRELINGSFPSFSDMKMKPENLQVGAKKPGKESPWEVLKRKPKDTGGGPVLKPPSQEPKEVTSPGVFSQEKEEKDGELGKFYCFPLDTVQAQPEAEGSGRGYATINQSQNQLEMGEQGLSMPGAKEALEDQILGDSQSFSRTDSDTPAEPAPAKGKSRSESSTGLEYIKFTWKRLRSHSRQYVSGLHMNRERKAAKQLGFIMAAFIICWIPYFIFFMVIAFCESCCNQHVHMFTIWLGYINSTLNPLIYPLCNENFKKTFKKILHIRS

| Ki (D2 receptors) [µM] | Ki (M1 muscarinic receptor) [µM] | Ki (alpha 2 receptors) [µM] | Ki (M3 muscarinic receptor) [µM] | Ki (Dopamine, D1) [µM] | Ki (alpha 1 receptors) [µM] | Ki (H1 histamine receptor) | Ki (M2 muscarinic receptor) [µM] | Compound | hERG at 10 micromolar (% blocking of the hERG channel) (hERG channel) [%] |
| --- | --- | --- | --- | --- | --- | --- | --- | --- | --- |
| > 10 | > 10 | > 10 | > 10 | > 10 | > 10 |  |  | COc1ccc2c(c1)Oc1ccc(OC)cc1C(N1CCN(CC(C)(C)C(=O)O)CC1)=N2 [Compound 35] | 0.10 |
|  | > 10 | > 10 | > 10 |  | > 10 | 0.0414 µM |  | Cc1ccc2c(c1)Oc1ccc(Br)cc1N=C2N1CCN(CC(C)(C)C(=O)O)CC1 [Compound 44] | 65.90 |
| > 10 | > 10 | > 10 | > 10 | > 10 | > 10 | 1.12 µM |  | COc1ccc2c(c1)N=C(N1CCN(CC(C)(C)C(=O)O)CC1)c1ccc(OC)cc1O2 [Compound 42] | 5.80 |
| 4.03 | > 10 | > 10 | > 10 | 2 | > 10 |  | > 10 | COc1ccc2c(c1)C(N1CCN(CC(C)(C)C(=O)O)CC1)=Nc1ccc(C)cc1O2 [Compound 58] | 0.20 |
| 1.59 | > 10 | > 10 | > 10 | 1.93 | 1.96 | 0.0768 µM | > 10 | Cc1ccc2c(c1)N=C(N1CCN(CC(C)(C)C(=O)O)CC1)c1cc(C)ccc1O2 [Compound 20] | 5.30 |
| > 10 | > 10 | > 10 | > 10 | > 10 | > 10 | 3.77 µM | > 10 | COc1ccc2c(c1)Oc1ccccc1C(N1CCN(CC(C)(C)C(=O)O)CC1)=N2 [Compound 32] | 1.60 |
| 0.434 | > 10 | > 10 | > 10 | 3.35 | > 10 | 0.0117 µM | > 10 | CC(C)(CN1CCN(C2=Nc3ccccc3Oc3ccc(Br)cc32)CC1)C(=O)O [Compound 8] | 49 |
| 0.47 | > 10 |  | > 10 | 0.514 | > 10 |  |  | COc1ccc2c(c1)C(N1CCN(CC(C)(C)C(=O)O)CC1)=Nc1ccc(Br)cc1O2 [Compound 72] | 10.90 |
| 0.222 | > 10 | > 10 | > 10 | 1.73 | > 10 | 0.217 µM | > 10 | O=C(O)C1(CN2CCN(C3=Nc4ccccc4Oc4ccc(Cl)cc43)CC2)CC1 [Compound 7] | 42.8 |
| > 10 | > 10 | > 10 | > 10 | > 10 | > 10 | 0.0987 µM | > 10 | COc1ccc2c(c1)Oc1ccccc1N=C2N1CCN(CC(C)(C)C(=O)O)CC1 [Compound 39] | 61.40 |
| > 10 | > 10 | > 10 | > 10 | 0.942 | > 10 | 0.283 µM | > 10 | CC(C)(CN1CCN(C2=Nc3ccccc3Oc3ccc(O)cc32)CC1)C(=O)O [Compound 14] | 0.30 |
| 2.2 | > 10 | > 10 | > 10 | 0.873 | > 10 | 0.239 µM and 0.337 µM and 0.244 µM |  | Cc1ccc2c(c1)Oc1ccc(C)cc1C(N1CCN(CC(C)(C)C(=O)O)CC1)=N2 [Compound 31] | 3.80 |
| 3.16 | > 10 | > 10 | > 10 | 6.8 | > 10 | 0.0395 µM | > 10 | Cc1ccc2c(c1)N=C(N1CCN(CC(C)(C)C(=O)O)CC1)c1ccccc1O2 [Compound 19] | 9.90 |
| 0.36 | > 10 | 1.95 | > 10 | 1.14 | 0.595 | 0.0318 µM | > 10 | Cc1ccc2c(c1)C(N1CCN(CC(C)(C)C(=O)O)CC1)=Nc1cc(Br)ccc1O2 [Compound 50] | 45.00 |
| > 10 | > 10 | > 10 | > 10 | > 10 | > 10 | 0.0188 µM |  | Cc1ccc2c(c1)Oc1ccccc1N=C2N1CCN(CC(C)(C)C(=O)O)CC1 [Compound 46] | 20.40 |
| 1.08 | > 10 | 5.82 |  | 4.97 | 1.21 | 0.0404 µM | > 10 | COc1ccc2c(c1)C(N1CCN(CC(C)(C)C(=O)O)CC1)=Nc1cc(C)ccc1O2 [Compound 54] | 6.10 |
| > 10 | > 10 | > 10 | > 10 | > 10 | > 10 | 0.117 µM |  | COc1ccc2c(c1)N=C(N1CCN(CC(C)(C)C(=O)O)CC1)c1cc(C)ccc1O2 [Compound 56] | 0.30 |
| 0.883 | > 10 |  | > 10 | 3.45 | 1.99 | 0.012 µM | > 10 | CC(C)(CN1CCN(C2=Nc3cc(Br)ccc3Oc3ccccc32)CC1)C(=O)O [Compound 17] | 30.10 |
|  |  |  |  |  |  |  |  | COc1ccc2c(c1)Oc1ccc(Br)cc1N=C2N1CCN(CC(C)(C)C(=O)O)CC1 [Compound 86] | 86.90 |
| 0.0961 |  | > 10 |  | 7.17 | 2.73 | 0.0138 µM |  | CC(C)(CCN1CCN(C2=Nc3ccccc3Oc3ccc(Cl)cc32)CC1)C(=O)O [Compound 6] | 27 |
| > 10 | > 10 | > 10 | > 10 |  | > 10 | 0.0554 µM | > 10 | Cc1ccc2c(c1)N=C(N1CCN(CC(C)(C)C(=O)O)CC1)c1ccc(C)cc1O2 [Compound 52] | 19.80 |
|  | > 10 |  | > 10 |  | > 10 | 0.0271 µM |  | COc1ccc2c(c1)C(N1CCN(CC(C)(C)C(=O)O)CC1)=Nc1cc(F)ccc1O2 [Compound 48] |  |
